Where a name gives a salt, the structure may show the parent alone.

The test system of this assay is HCT 116 cells (human colon carcinoma, ATCC-No. CCl-247). Nature of the assay: Viability assay in HCT 116 cells (CellTiter-Glo Luminescent Cell Viability Assay). Conditions: 10 concentrations 30 μM to 0.0015 μM, incubation 120 h (5 days), luminescence (ATP), triplicate. Format: cell-based. From the text:
Viability Assay in HCT 116 Cells
This assay is a homogeneous method of determining the number of viable cells in culture based on quantitation of the ATP present, an indicator of metabolically active cells. The assay is designed for use with multiwell formats, making it ideal for automated high-throughput screening (HTS), cell proliferation and cytotoxicity assays. The homogeneous assay procedure involves adding a single reagent (containing luciferase, luciferan substrate, and buffer) directly to cells cultured in serum-supplemented medium. Cell washing, removal of medium and multiple pipetting steps are not required. The system detects as few as 15 cells/well in a 384-well format in 10 minutes after adding reagent and mixing.
The homogeneous “add-mix-measure” format results in cell lysis and generation of a luminescent signal proportional to the amount of ATP present. The amount of ATP is directly proportional to the number of cells present in culture. The above-referenced assay generates a “glow-type” luminescent signal, produced by the luciferase reaction, which has a half-life generally greater than five hours, depending on cell type and medium used. The extended half-life eliminates the need to use reagent injectors and provides flexibility for continuous or batch mode processing of multiple plates. The unique homogeneous format avoids errors that may be introduced by other ATP measurement methods that require multiple steps.
For the assay the cells were seeded in 384 well plates, 1000 cells per well, in the same medium. […] After 5 days the viability assay was done according to the instructions of the manufacturer. In brief: the cell-plate was equilibrated to room temperature for approximately 30 minutes and then reagent (containing luciferase, luciferan substrate, and buffer) was added. The contents were carefully mixed for 15 minutes to induce cell lysis. After 45 minutes the luminescent signal was measured in Victor 2, (scanning multiwell spectrophotometer, Wallac).
In order to achieve a final concentration of 30 μM as highest concentration […] of 10 mM compound stock solution were added directly to 163 μl media. Then step e) of the dilution procedure described below, was followed.
Analysis: • Add 30 μl of reagent containing luciferase, luciferan substrate, and buffer per well, • shake 15 minutes at room temperature • incubate further 45 minutes at room temperature without shaking
Measurement: • Victor 2 scanning multiwell spectrophotometer (Wallac), Luminescence mode (0.5 sec/read, 477 nm) • Determine IC50 using a non-linear curve fit (XLfit® software [ID Business Solution Ltd., Guilford, Surrey, UK])
A general note: Cellular ATP, detected with luciferase, serves as a proxy for viable cell number.
`COc1cccc(/C=C/S(=O)(=O)NC(=O)c2ccc(F)cc2Cl)c1` [Example 1-14, (E)-2-(3-Methoxy-phenyl)-ethenesulfonic acid 2-chloro-4-fluoro-benzoylamide; sodium salt]: the 50% inhibitory concentration (IC50) (usually the concentration needed to halve the response being measured) was 0.5 to 15 µM.

Compound `O=C(NS(=O)(=O)/C=C/c1ccccc1)c1ccc(F)cc1C(F)(F)F` [Example 1-45, (E)-2-Phenyl-ethenesulfonic acid 4-fluoro-2-trifluoromethyl-benzoylamide; sodium salt] showed an IC50 of 0.5 to 15 µM.

With `O=C(NS(=O)(=O)C=Cc1ccccc1)c1ccc(Cl)cc1F` [Example 1-43, 2-Phenyl-ethenesulfonic acid 4-chloro-2-fluoro-benzoylamide], the IC50 is 0.5 to 15 µM.

Compound `O=C(NS(=O)(=O)/C=C/c1ccc(OC(F)(F)F)cc1)c1ccc(Cl)cc1Cl` [Example 1-9, (E)-2-(4-Trifluoromethoxyphenyl)-ethenesulfonic acid 2,4-dichloro-benzoylamide] came in with an IC50 of 0.5 to 15 µM.

Compound `Cc1ccc(C(=O)NS(=O)(=O)/C=C/c2ccc(Cl)c(Cl)c2)c(Br)c1` [Example 4-16, (E)-2-(3,4-Dichloro-phenyl)-ethenesulfonic acid 2-bromo-4-methyl-benzoylamide; sodium salt] had an IC50 of 0.5 to 15 µM.

On to `O=C(NS(=O)(=O)/C=C/c1ccc(OC(F)(F)F)cc1)c1ccc(F)cc1Br` [Example 4-22, (E)-2-(4-Trifluoromethoxyphenyl)-ethenesulfonic acid 2-bromo-4-fluoro-benzoylamide; sodium salt], for which the IC50 fell in the range of 0.5 to 15 µM.

Regarding `COc1ccccc1/C=C/S(=O)(=O)NC(=O)c1ccc(Br)cc1C` [Example 4-8, (E)-2-(2-Methoxy-phenyl)-ethenesulfonic acid 4-bromo-2-methyl-benzoylamide; sodium salt], the IC50 lay in the range of 0.5 to 15 µM.

Consider `Cc1cc(Cl)ccc1C(=O)NS(=O)(=O)/C=C/c1ccccc1Cl` [Example 4-2, (E)-2-(2-Chlorophenyl)-ethenesulfonic acid 4-chloro-2-methyl-benzoylamide; sodium salt], for which the IC50 is 0.5 to 15 µM.

Consider `Cc1ccc(/C=C/S(=O)(=O)NC(=O)c2ccc(Cl)cc2Cl)c(C)c1` [Example 1-4, (E)-2-(2,4-Dimethyl-phenyl)-ethenesulfonic acid 2,4-dichloro-benzoylamide], for which the IC50 was in the range of 0.5 to 15 µM.

Compound `Cc1ccc(C(=O)NS(=O)(=O)/C=C/c2ccccc2)c(Br)c1` [Example 6-3, (E)-2-Phenyl-ethenesulfonic acid 2-bromo-4-methyl-benzoylamide; sodium salt] gave an IC50 of 0.5 to 15 µM.

For `O=C(NS(=O)(=O)/C=C/c1ccccc1)c1ccc(Br)cc1Cl` [Example 6-5, (E)-2-Phenyl-ethenesulfonic acid 4-bromo-2-chloro-benzoylamide; sodium salt], the IC50 was in the range of 0.5 to 15 µM.

`O=C(NS(=O)(=O)/C=C/c1c(F)cc(F)cc1F)c1ccc(Cl)cc1Cl` [Example 1-36, (E)-2-(2,4,6-Trifluoro-phenyl)-ethenesulfonic acid 2,4-dichloro-benzoylamide; sodium salt] registered an IC50 of 0.5 to 15 µM.

Consider `O=C(NS(=O)(=O)/C=C/c1ccc(C(F)(F)F)cc1)c1ccc(F)cc1C(F)(F)F` [Example 1-42, (E)-2-(4-Trifluoromethyl-phenyl)-ethenesulfonic acid 4-fluoro-2-trifluoromethyl-benzoylamide; sodium salt], for which the IC50 lay in the range of 0.5 to 15 µM.

In turn, `O=C(NS(=O)(=O)/C=C/c1ccccc1Cl)c1ccc(Br)cc1Cl` [Example 4-28, (E)-2-(2-Chloro-phenyl)-ethenesulfonic acid 4-bromo-2-chloro-benzoylamide; sodium salt] registered an IC50 of 0.5 to 15 µM.

Take `COc1ccccc1/C=C/S(=O)(=O)NC(=O)c1ccc(C(F)(F)F)cc1C(F)(F)F` [Example 1-28, (E)-2-(2-Methoxy-phenyl)-ethenesulfonic acid 2,4-bis-trifluoromethyl-benzoylamide; sodium salt]: the IC50 lay within 0.5 to 15 µM.

As to `O=C(NS(=O)(=O)/C=C/c1ccccc1)c1ccc(Cl)cc1Br` [Example 5-4, (E)-2-Phenyl-ethenesulfonic acid 2-bromo-4-chloro-benzoylamide], the IC50 lay in the range of 0.5 to 15 µM.

The compound `O=C(NS(=O)(=O)/C=C/c1ccc(F)cc1F)c1ccc(Cl)cc1Cl` [Example 1-8, (E)-2-(2,4-Difluoro-phenyl)-ethenesulfonic acid 2,4-dichloro-benzoylamide] gave an IC50 of 0.5 to 15 µM.

`Cc1cc(Br)ccc1C(=O)NS(=O)(=O)/C=C/c1ccc(C(F)(F)F)cc1` [Example 4-35, (E)-2-(4-Trifluoromethyl-phenyl)-ethenesulfonic acid 4-bromo-2-methyl-benzoylamide; sodium salt] displayed an IC50 of 0.5 to 15 µM.

`O=C(NS(=O)(=O)/C=C/c1ccc(C(F)(F)F)cc1)c1ccc(F)cc1Br` [Example 4-17, (E)-2-(4-Trifluoromethyl-phenyl)-ethenesulfonic acid 2-bromo-4-fluoro-benzoylamide; sodium salt]: the IC50 lay in the range of 0.5 to 15 µM.

For the origin of these results see patent US7208526B2, “Styrylsulfonamides” (Hoffmann-La Roche Inc., priority 2005, dated 2007).
